Source: US20240148821A1, “PHARMACEUTICAL USE OF CYCLIC PEPTIDE COMPOUND” (CHUGAI SEIYAKU KABUSHIKI KAISHA, priority 2021, published 2024)
Numbered stars: 1 amine (or outer) side, 2 acyl side, 3 side chain; on linkers, the order of the positions; unused ones are H or OH. Bridge positions count the residues as written; N and C are the ends. Square brackets hold non-standard residues; d marks the D form. Peptide text beside a SMILES is read from it. * marks the point of attachment. hPhe(3,5-F2-4-CF3) = N[C@@H](CCc1cc(F)c(C(F)(F)F)c(F)c1)C(=O)O; hPhe(3-Cl-4-CF3) = N[C@@H](CCc1ccc(C(F)(F)F)c(Cl)c1)C(=O)O; hPhe(3-F,4-CF3) = N[C@@H](CCc1ccc(C(F)(F)F)c(F)c1)C(=O)O; NMePhe(4-CF3) = CN[C@@H](Cc1ccc(C(F)(F)F)cc1)C(=O)O; hPhe(4-CF3) = N[C@@H](CCc1ccc(C(F)(F)F)cc1)C(=O)O; NEtPhe(4-Me) = CCN[C@@H](Cc1ccc(C)cc1)C(=O)O; NMePhe(4-Cl) = CN[C@@H](Cc1ccc(Cl)cc1)C(=O)O; NMedβ3hAla = C[C@H](CC(=O)[*:2])N(C)[*:1]; NMeAla(cPent) = CN[C@@H](CC1CCCC1)C(=O)O; NMeGly(cPent) = CN[C@H](C(=O)O)C1CCCC1; dβ3hPip = O=C(C[C@H]1CCCCN1[*:1])[*:2]; NMeCha = CN[C@@H](CC1CCCCC1)C(=O)O; Hyp = O=C(O)[C@@H]1C[C@@H](O)CN1; NMeAhp(2) = CCCCC[C@H](NC)C(=O)O; NMeI = CC[C@H](C)[C@H](NC)C(=O)O; NMeD = CN[C@@H](CC(=O)O)C(=O)O; NMeL = CN[C@@H](CC(C)C)C(=O)O; NMePra = C#CC[C@H](NC)C(=O)O; NMeV = CN[C@H](C(=O)O)C(C)C; NMeS = CN[C@@H](CO)C(=O)O; Morpholide = C1CN(*)CCO1; NMeA = CN[C@@H](C)C(=O)O; NMeAib = CNC(C)(C)C(=O)O; Piperidide = C1CCN(*)CC1; Pyrrolidide = C1CCN(*)C1; Ac5c = NC1(C(=O)O)CCCC1; Aze = O=C(O)[C@@H]1CCN1; Isopentyl = CC(C)CC*; Sar = CNCC(=O)O

Key:
[1] = biological target: protein-protein interaction between Kras and SOS1 (biotin-tagged human Kras loaded with GDP, His-tagged human SOS1) (Homo sapiens (Human), UniProt P01116, G12D); assay: Protein-protein interaction inhibition between Kras and SOS1 (KrasG12D-SOS PPI) using AlphaScreen; type: biochemical; conditions: AlphaScreen; biotin-tagged human Kras loaded with GDP, His-tagged human SOS1; read-out: KRAS G12D-SOS PPI IC50;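 note: kras produced in E. coli, Ni-coupled donor beads and streptavidin acceptor beads, excitation 680 nm with emission detected at 520–620 nm via singlet oxygen transfer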
[2] = test system: Human pancreatic cancer cell line AsPC-1 (G12D mutation Kras); assay: AsPC-1 cell growth inhibition (AsPC-1 CGI); type: cell-based; conditions: read-out: AsPC-1 cell growth inhibition, 50% growth inhibitory concentration (IC50 value); 96 hours, CellTiter-Glo, values classified in ranges

Row | SMILES | IC50 [1] [µM] | IC50 [2] [µM]
1 | CC[C@H](C)[C@@H]1NC(=O)[C@H](COCCC(C)C)N(C)C(=O)C[C@@H](C(=O)N2CCCCC2)N(C)C(=O)[C@H](C(C)C)N(C)C(=O)C2(CCCC2)NC(=O)[C@@H]2CCCN2C(=O)[C@H](CCc2ccc(C(F)(F)F)c(Cl)c2)NC(=O)CN(C)C(=O)[C@H](CC2CCCCC2)N(C)C(=O)[C@@H]2CCN2C(=O)[C@H](C)N(C)C1=O [Compound 661] ([NMeS](Isopentyl)I[NMeA][Aze][NMeCha][Sar][hPhe(3-Cl-4-CF3)]P[Ac5c][NMeV][NMeD]-Piperidide; lactam N-11) | 0.013 | > 0.5
2 | CC[C@H](C)[C@@H]1NC(=O)[C@H](CC(C)C)N(C)C(=O)C[C@H]2CCCCN2C(=O)[C@H](CC(C)C)NC(=O)C(C)(C)N(C)C(=O)[C@H](CC(C)C)NC(=O)[C@H](CCc2ccc(C(F)(F)F)c(F)c2)NC(=O)CN(C)C(=O)[C@H](CC2CCCCC2)N(C)C(=O)CN(C)C(=O)CN(C)C1=O [Compound 1095] (cyclo(I[Sar][Sar][NMeCha][Sar][hPhe(3-F,4-CF3)]L[NMeAib]L[dβ3hPip][NMeL])) | 0.046 | > 0.5
3 | CC[C@H](C)[C@@H]1NC(=O)[C@H](CC2CCCC2)N(C)C(=O)C[C@@H](C(=O)N2CCOCC2)N(C)C(=O)[C@H](C2CCCC2)N(C)C(=O)C2(CCCC2)NC(=O)[C@@H]2CCCN2C(=O)[C@H](CCc2ccc(C(F)(F)F)c(Cl)c2)NC(=O)CN(C)C(=O)[C@H](C2CCCC2)N(C)C(=O)[C@@H]2CCN2C(=O)[C@H](C)N(C)C1=O [Compound 1173] ([NMeAla(cPent)]I[NMeA][Aze][NMeGly(cPent)][Sar][hPhe(3-Cl-4-CF3)]P[Ac5c][NMeGly(cPent)][NMeD]-Morpholide; lactam N-11) | 0.00074 | ≤ 0.02
4 | CCCCC[C@H]1C(=O)N(C)[C@H](C(=O)N2CCCCC2)CC(=O)N(C)[C@@H](CC(C)C)C(=O)N[C@@H]([C@@H](C)CC)C(=O)N(C)[C@@H](C)C(=O)N2CC[C@H]2C(=O)N(C)[C@@H](CC2CCCCC2)C(=O)N(C)CC(=O)N[C@@H](CCc2ccc(C(F)(F)F)c(Cl)c2)C(=O)N2CCC[C@H]2C(=O)NC2(CCCC2)C(=O)N1C [Compound 1707] ([NMeL]I[NMeA][Aze][NMeCha][Sar][hPhe(3-Cl-4-CF3)]P[Ac5c][NMeAhp(2)][NMeD]-Piperidide; lactam N-11) | 0.18 | > 0.5
5 | CC[C@H](C)[C@@H]1NC(=O)[C@H](CC(C)C)N(C)C(=O)C[C@@H](C)N(C)C(=O)[C@H](C2CCCC2)N(C)C(=O)C2(CCCC2)NC(=O)[C@@H]2CCCN2C(=O)[C@H](CCc2cc(F)c(C(F)(F)F)c(F)c2)NC(=O)CN(C)C(=O)[C@H](Cc2ccc(C(F)(F)F)cc2)N(C)C(=O)[C@@H]2CCN2C(=O)[C@H](C)N(C)C1=O [Compound 371] (cyclo([Ac5c][NMeGly(cPent)][NMedβ3hAla][NMeL]I[NMeA][Aze][NMePhe(4-CF3)][Sar][hPhe(3,5-F2-4-CF3)]P)) | 0.0013 | ≤ 0.02
6 | CCO[C@@H]1C[C@H]2C(=O)NC3(CCCC3)C(=O)N(C)[C@@H]([C@@H](C)CC)C(=O)N(C)[C@H](C)CC(=O)N(C)[C@@H](CC(C)C)C(=O)N[C@@H]([C@@H](C)CC)C(=O)N(C)[C@@H](C)C(=O)N3CC[C@H]3C(=O)N(CC)[C@@H](Cc3ccc(C)cc3)C(=O)N(C)CC(=O)N[C@@H](CCc3cc(F)c(C(F)(F)F)c(F)c3)C(=O)N2C1 [Compound 33] (cyclo([Ac5c][NMeI][NMedβ3hAla][NMeL]I[NMeA][Aze][NEtPhe(4-Me)][Sar][hPhe(3,5-F2-4-CF3)][Hyp](Et))) | 0.0069 | ≤ 0.02
7 | C#CC[C@H]1C(=O)N(C)CC(=O)N[C@@H](CCc2ccc(C(F)(F)F)c(Cl)c2)C(=O)N2CCC[C@H]2C(=O)NC2(CCCC2)C(=O)N(C)[C@@H](C(C)C)C(=O)N(C)[C@H](C(=O)N2CCCCC2)CC(=O)N(C)[C@@H](CC(C)C)C(=O)N[C@@H]([C@@H](C)CC)C(=O)N(C)[C@@H](C)C(=O)N2CC[C@H]2C(=O)N1C [Compound 32] ([NMeL]I[NMeA][Aze][NMePra][Sar][hPhe(3-Cl-4-CF3)]P[Ac5c][NMeV][NMeD]-Piperidide; lactam N-11) | 0.02 | > 0.5
8 | C#CC[C@H]1C(=O)N(C)[C@H](C(=O)N2CCCCC2)CC(=O)N(C)[C@@H](CC(C)C)C(=O)N[C@@H]([C@@H](C)CC)C(=O)N(C)[C@@H](C)C(=O)N2CC[C@H]2C(=O)N(C)[C@@H](CC2CCCCC2)C(=O)N(C)CC(=O)N[C@@H](CCc2ccc(C(F)(F)F)c(Cl)c2)C(=O)N2CCC[C@H]2C(=O)NC2(CCCC2)C(=O)N1C [Compound 766] ([NMeL]I[NMeA][Aze][NMeCha][Sar][hPhe(3-Cl-4-CF3)]P[Ac5c][NMePra][NMeD]-Piperidide; lactam N-11) | 0.13 | > 0.5
9 | CC[C@H](C)[C@@H]1NC(=O)[C@H](C(C)C)N(C)C(=O)C[C@@H](C(=O)N2CCCC2)NC(=O)[C@H](CC(C)C)N(C)C(=O)C2(CCCC2)NC(=O)[C@H](CC(C)C)N(C)C(=O)[C@H](CCc2ccc(C(F)(F)F)cc2)NC(=O)CN(C)C(=O)[C@H](Cc2ccc(Cl)cc2)N(C)C(=O)CN(C)C(=O)CN(C)C1=O [Compound 769] ([NMeV]I[Sar][Sar][NMePhe(4-Cl)][Sar][hPhe(4-CF3)][NMeL][Ac5c][NMeL]D-Pyrrolidide; lactam N-11) | 0.052 | > 0.5
